Measurements taken from patent US8273780B2, “Polycyclic antagonists of lysophosphatidic acid receptors” (Amira Pharmaceuticals, Inc., priority 2009, dated 2012).

Legend:
[1] = tested on: C57BL/6 mice; assay: Mouse carbon tetrachloride (CCl4)-induced liver fibrosis model; assay type: in vivo; conditions: compared to the untreated group
Description: Female C57BL/6 mice (Harlan, 20-25 g) housed 4/cage are given free access to food and water and allowed to acclimate for at least 7 days prior to test initiation. After the habituation phase, mice receive CCl4 (1.0 ml/kg body weight) diluted in corn oil vehicle (100 μL volume) via i.p. injection twice a week for 8 weeks. (Higazi, A. A. et al., Clin Exp Immunol. 2008 April; 152(1):163-73. Epub 2008 Feb. 14.). Control mice receive an equivalent volume of corn oil vehicle only. Test compound or vehicle is delivered po, ip or sc daily. […] Liver tissue homogenates are analyzed for collagen levels using Sircol (Biocolor Ltd, UK). Fixed Liver tissue is stained using hematoxylin and eosin (H&E) and trichrome and liver fibrosis is determined by quantitative, computer-assisted densitometry of collagen in liver tissue sections using light microscopy. Plasma and liver tissue lysates are also analyzed for concentrations of inflammatory, pro-fibrotic and tissue injury biomarkers including transforming growth factor β1, hyaluronic acid, tissue inhibitor of metalloproteinase-1, matrix matelloproteinase-7, connective tissue growth factor and lactate dehydrogenase activity, using commercially available ELISA. The resulting data are plotted using Graphpad prism and statistical differences between groups determined.

[2] = tested on: human A2058 melanoma cells; assay: LPA1 chemotaxis assay; assay type: cell-based; conditions: 100 nM LPA, read-out: inhibition of LPA-driven chemotaxis IC50
Description: Chemotaxis of the A2058 human melanoma cells was measured using the Neuroprobe ChemoTx® System plates (8 μM pore size, 5.7 mm diameter sites). The filter sites were coated with 0.001% fibronectin (Sigma) in 20 mM Hepes, pH 7.4 and allowed to dry. A2058 cells were serum-starved for 24 hours, then harvested with Cell Stripper and resuspended in DMEM containing 0.1% fatty-acid-free bovine serum albumin (BSA) to a concentration of 1×10^6/ml. Cells were mixed with an equal volume of test compound (2×) in DMEM containing 0.1% fatty-acid-free BSA and incubated at 37° C. for 15 minutes. LPA (100 nM in DMEM containing 0.1% fatty-acid-free BSA) or vehicle was added to each well of the lower chamber and 50 μl of the cell suspension/test compound mix was applied to the upper portion of the ChemoTx plate. Plates were incubated at 37° C. for three hours and then the cells removed from the upper portion by rinsing with PBS and scraping. The filter was dried then stained with HEMA 3 Staining System (Fisher Scientific). The absorbance of the filter was read at 590 nm and IC50s were determined using Symyx Assay Explorer.

[3] = tested on: C57BL/6 mice; assay: Mouse unilateral ureteral obstruction kidney fibrosis model; assay type: in vivo; conditions: compared to untreated group
Description: Female C57BL/6 mice (Harlan, 20-25 g) housed 4/cage will be given free access to food and water and allowed to acclimate for at least 7 days prior to test initiation. After the habituation phase, mice undergo unilateral ureteral obstruction (UUO) surgery or sham to left kidney. Briefly, a longitudinal, upper left incision is performed to expose the left kidney. The renal artery is located and 6/0 silk thread is passed between the artery and the ureter. The thread is looped around the ureter and knotted 3 times insuring full ligation of ureter. The kidney is returned to abdomen, the abdominal muscle is sutured and the skin is stapled closed. Mice are returned to their cages and monitored daily for the duration of the experiment. Test compound or vehicle is delivered po, ip or sc daily. The route and frequency of dosing is based on previously determined pharmacokinetic properties. All animals are sacrificed using inhaled isoflurane 4, 8 or 14 days after UUO surgery. Following sacrifice blood is drawn via cardiac puncture, the kidneys are harvested and one half of the kidney is frozen at −80° C. and the other half is fixed in 10% neutral buffered formalin for histological assessment of kidney fibrosis using light microscopy (10× magnification). Kidney tissue homogenates are analyzed for collagen levels using Sircol (Biocolor Ltd, UK). Fixed kidney tissue is also stained using hematoxylin and eosin (H&E) and trichrome and kidney fibrosis is determined by quantitative, computer-assisted densitometry of collagen in […] tissue sections using light microscopy and collagen content in kidney lysate. Plasma and kidney tissue lysates are also analyzed for concentrations of inflammatory, pro-fibrotic and tissue injury biomarkers including transforming growth factor β1, hyaluronic acid, tissue inhibitor of metalloproteinase-1, and plasminogen activator inhibitor-1, using commercially available ELISA. The resulting data are plotted using Graphpad prism and statistical differences between groups determined.

[4] = tested on: BALB/c mice; assay: Mouse dermal vascular leak assay; assay type: in vivo; conditions: 30 mg/kg oral gavage, three hours before dye; intradermal LPA 30 μg
Description: Female BALB/c mice (Harlan) weighing 20-25 grams were given free access to standard mouse chow and water and were allowed to acclimate for two weeks prior to study initiation. Compound 1 was prepared in water vehicle at a concentration of 3 mg/ml and delivered by oral gavage at a volume of 10 ml/kg to yield a dose of 30 mg/kg. Three hours following dose, mice were placed into a restraining device and given Evan's blue dye intravenously by tail vein injection (0.2 ml of a 0.5% solution). Mice were then anesthetized using 3% isoflurane anaesthesia to allow for intradermal injection of LPA (30 μg in 20 μl 0.1% fatty acid free BSA). Thirty minutes after LPA injection mice were sacrificed by CO2 inhalation and the skin removed from the challenge site and placed into 2 ml formamide for overnight extraction of Evan's blue dye.
Following extraction, a 150 μl aliquot of formamide for each tissue sample was placed into a 96 well plate and read at 610 nm using a photospectometer. The resulting data (OD units) were plotted using GraphPad Prizm. In this experiment compound 1 reduced LPA-induced Evan's blue dye leak into the skin.

- IC50 [2]: < 100 nM
SMILES: Cc1noc(-c2ccc(-c3ccc(C4(C(=O)O)CC4)cc3)cc2)c1NC(=O)O[C@H](C)c1ccccc1 [Compound 1, 1-{4′-[3-Methyl-4-((R)-1-phenyl-ethoxycarbonylamino)-isoxazol-5-yl]-biphenyl-4-yl}-cyclopropanecarboxylic acid]
- collagen deposition in the liver [1]: significantly reduced
- liver weight increase [1]: significantly reduced
- hyaluronic acid [3]: reduced
- plasminogen activator inhibitor-1 [3]: reduced
- tissue inhibitor of metalloproteinase-1 [3]: reduced
- total kidney collogen [3]: reduced
- transforming growth factor β1 [3]: reduced
- collagen Type 1 ([3]; kidney): reduced
- LPA-induced Evan's blue dye leak into the skin [4]: reduced
